Data on 48 compounds can be found in patent US8765786B2, “1-substituted indazole derivative” (Dainippon Sumitomo Pharma Co., Ltd., priority 2012, dated 2014).

The assay concerns the target T1, human α7 nAChR (Homo sapiens, UniProt P36544).
T1 construct: expressed in transfected cells; host or cells: GH4C1 cells derived from rat pituitary (ATCC CCL-82.2)
The experiment in a line: Evaluation of PAM activity with human α7 nACh receptor stably expressing cells (aequorin luminescence, FDSS7000). The assay is classed as cell-based. The conditions noted are these: for α7PAM (%) @ 10 μmol/L / activity at 10 µM: test compound 10 μmol/L, ACh added at EC20, ratio of RLU (Max-Min) of test wells to control wells; for activity at 10 µM: read-out: α7PAM (%) @ 10 μmol/L. From the text:
Human α7 nAChR stably expressing cells were generated and cultured. In detail, GH4C1 cells derived from rat pituitary (cat#CCL-82.2, ATCC, USA) were used as a host cell. PcDNA3.1Zeo vector containing a nucleotide sequence encoding a protein GenBank BAC81731 and pcDNA3.1 vector containing human α7 nAChR gene (cat#V790-20, invitrogen, Carlsbad, Calif., USA) were transfected to the cells to give aequorins and human α7 nAChR stably expressing cells respectively. The aequorins and human α7 nAChR stably expressing cells were screened with Zeocin (cat#R25001, invitrogen, Carlsbad, Calif., USA) and Geneticin (cat #10131-027, invitrogen, Carlsbad, Calif., USA) respectively.
The cells were cultured in F-10 Nutrient Mixture (Ham) medium (cat #11550-043, invitrogen, Carlsbad, Calif., USA) containing 2.5% fetal bovine serum (cat #2917354, ICN Biomedicals, Inc, USA), 15% inactivated horse serum (cat #26050-088, invitrogen, Carlsbad, Calif., USA), 1 μg/mL Geneticin, and 5 μg/mL Puromycin (cat #14861-84, invitrogen, Carlsbad, Calif., USA), in a Collagen Type 1-coated dish (cat #4030-010, iwaki, Tokyo, Japan). During the culture, the medium was replaced with fresh medium in every 2 to 3 days, and the cells were treated with TrypLE Express (cat #45604-021, invitrogen, Carlsbad, Calif., USA) to collect them in every 7 days. Thus, the cells were subcultured.
7 Days after subculturing, the cells were treated with TrypLE Express to collect them when they were about 80% confluent. The cells were suspended in a reaction medium containing Hanks (cat #14065-056, invitrogen, Carlsbad, Calif., USA)/20 mmol/L Hepes (cat #15630-080, invitrogen, Carlsbad, Calif., USA), Buffer (pH 7.4), F-10 Nutrient Mixture (Ham), and 0.1 mg/mL Geneticin, and the suspension was seeded in a 384-well plate (cat #781090, Greiner, Germany) at 20000 cells/25 μL per well.
On the next day after seeding, Viviren (cat#E649X, Promega, Madison, Wis., USA) was added to the medium so that the final concentration could be 4 μmol/L (15 μL/well). The plates were centrifuged and then placed in the dark for 4 hours at room temperature.
Each of the test compounds was dissolved in DMSO to prepare each test sample at a concentration of 1000-fold the final concentration. To the solution was added Hanks/20 mM HEPES/0.2% BSA (cat#A3803, Sigma, St. Louis, Mo., USA), and the concentration was adjusted to 6-fold the final concentration.
FDSS7000 (Hamamatsu Photonics) was used to detect the luminescence signal evoked by α7 nAChR stimulation. The cells and a luminescent substrate were put on a plate, and the test sample was added thereto. […] After the addition of ACh, the luminescence signal (the central wavelength: 465 nm) was measured for 138 seconds to calculate RLU (Max-Min). The ratio of the RLU (Max-Min) of the test-compound-containing wells to that of the control wells was defined as PAM activity.

T1 sequence (P36544 23-502): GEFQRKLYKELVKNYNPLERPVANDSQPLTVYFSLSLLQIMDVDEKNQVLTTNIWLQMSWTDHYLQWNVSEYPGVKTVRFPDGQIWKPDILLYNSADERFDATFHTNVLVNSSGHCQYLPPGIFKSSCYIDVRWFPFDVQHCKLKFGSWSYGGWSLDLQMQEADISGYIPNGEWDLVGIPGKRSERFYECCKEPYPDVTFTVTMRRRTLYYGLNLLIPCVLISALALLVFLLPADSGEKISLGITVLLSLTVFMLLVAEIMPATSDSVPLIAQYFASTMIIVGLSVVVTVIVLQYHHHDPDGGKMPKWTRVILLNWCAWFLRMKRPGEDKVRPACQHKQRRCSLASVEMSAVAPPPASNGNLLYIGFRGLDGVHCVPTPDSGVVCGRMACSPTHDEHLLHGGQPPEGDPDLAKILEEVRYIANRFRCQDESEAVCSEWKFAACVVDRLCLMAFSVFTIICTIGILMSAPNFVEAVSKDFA

Consider `CO[C@H]1CC[C@H](NC(=O)N2CCC(n3ncc4c(C)c(OC(F)F)ccc43)CC2)CC1` [Example 293], for which the “α7PAM (%) @ 10 μmol/L” value came out at 525%.
Take `Cc1ccc2c(cnn2C2CCN(C(=O)NC3CCC(F)(F)CC3)CC2)c1F` [Example 222]: the “α7PAM (%) @ 10 μmol/L” value worked out at 638%.
Still for that read-out and setting: under `COc1cccc2c1cnn2C1CCN(C(=O)NC2CCCCC2)CC1` [Example 181] stands 538%; under `CC(C)Oc1ccc2c(cnn2C2CCN(C(=O)NC3CCCC3)CC2)c1` [Example 49], 429%; under `CCOc1ccc2c(cnn2C2CCN(C(=O)N[C@H]3CC[C@H](OC)CC3)CC2)c1` [Example 30], 908%.
`[2H]C([2H])([2H])O[C@H]1CC[C@H](NC(=O)N2CCC(n3ncc4cc(C)ccc43)CC2)CC1` [Example 295, 4-(5-methyl-1H-indazol-1-yl)-N-{trans-4-[(^2H3)methoxy]cyclohexyl}piperidine-1-carboxamide]: the “α7PAM (%) @ 10 μmol/L” value is 1143%.
The same measure, in the same setting: under `COC1CCC(NC(=O)N2CCC(n3ncc4c(OC(F)F)cccc43)CC2)CC1` (stereo not drawn) [Example 202] stands 195%; under `O=C(NC1CC(F)(F)C1)N1CCC(n2ncc3cc(C4CC4)ccc32)CC1` [Example 217], 517%.
Consider `Cc1ccc2c(cnn2C2CCN(C(=O)NC3CCOC(C)(C)C3)CC2)c1` (stereo not drawn) [Example 12], for which the “α7PAM (%) @ 10 μmol/L” value was found to be 231%.
Same read-out and setting: under `CCO[C@H]1CC[C@H](NC(=O)N2CCC(n3ncc4c(C5CC5)cccc43)CC2)CC1` [Example 44] stands 322%; under `CCc1ccc2c(cnn2[C@H]2CC[C@@H](C(=O)NC3CCOCC3)CC2)c1` [Example 129], 325%; under `Cc1cccc2c1cnn2C1CCN(C(=O)NC2CCC(OC(F)F)CC2)CC1` (stereo not drawn) [Example 97], 117%.
For `[2H]C([2H])([2H])c1ccc2c(cnn2C2CCN(C(=O)N[C@H]3CC[C@H](OC)CC3)CC2)c1` [Example 144, N-(trans-4-methoxycyclohexyl)-4-[5-(^2H3)methyl-1H-indazol-1-yl]piperidine-1-carboxamide], the activity at 10 µM was 637%.
As for `COc1ccc2c(c1)c(C1CC1)nn2C1CCN(C(=O)N[C@H]2CC[C@H](OC)CC2)CC1` [Example 257], the “α7PAM (%) @ 10 μmol/L” value turned out to be 801%.
Still for that read-out and setting: under `COCc1c(C2CC2)ccc2c1cnn2C1CCN(C(=O)N[C@H]2CC[C@H](OC)CC2)CC1` [Example 216] stands 271%.
On the same count and under the same terms, under `CCOc1cccc2c1cnn2C1CCN(C(=O)NC2CCCCC2)CC1` [Example 191] stands 493%.
Regarding `O=C(NC1CCCC1)N1CCC(n2ncc3cc(OC(F)(F)F)ccc32)CC1` [Example 229], the “α7PAM (%) @ 10 μmol/L” value was found to be 689%.
`O=C(NC1CCOCC1)N1CCC(n2ncc3cc(Br)ccc32)CC1` [Example 65]: the “α7PAM (%) @ 10 μmol/L” value amounted to 385%.
Still for that read-out and setting: under `CCc1ccc2c(cnn2C2CCN(C(=O)C3CCC(OC)CC3)CC2)c1` (stereo not drawn) [Example 117] stands 209%.
Same read-out and setting: under `O=C(NC1CCC(F)(F)CC1)N1CCC(n2ncc3c(C(F)(F)F)cccc32)CC1` [Example 169] stands 359%; under `O=C(C1CCC(F)(F)CC1)N1CCC(n2ncc3cc(F)ccc32)CC1` [Example 134], 237%.
On the same count and under the same terms, under `[2H]C([2H])([2H])O[C@H]1CC[C@H](NC(=O)N2CCC(n3ncc4c(CC)cccc43)CC2)CC1` [Example 307] stands 464%.
Take `COCc1nn(C2CCN(C(=O)NC3CCC(F)(F)CC3)CC2)c2ccc(C)cc12` [Example 36, N-(4,4-difluorocyclohexyl)-4-(3-(methoxymethyl)-5-methyl-1H-indazol-1-yl)piperidine-1-carboxamide]: the activity at 10 µM stood at 897%.
Consider `COCc1cccc2c1cnn2C1CCN(C(=O)NC2CCC(F)(F)CC2)CC1` [Example 166], for which the “α7PAM (%) @ 10 μmol/L” value is listed as 711%.
On the same count and under the same terms, under `O=C(NC1CCCCC1)N1CCC(n2ncc3cc(C4CC4)ccc32)CC1` [Example 199] stands 1497%.
Regarding `O=C(NC1CCC(F)(F)CC1)N1CCC(n2ncc3cc(F)ccc32)CC1` [Example 28, N-(4,4-difluorocyclohexyl)-4-(5-fluoro-1H-indazol-1-yl)piperidine-1-carboxamide], the activity at 10 µM came out at 340%.
As to `COCc1ccc2c(cnn2C2CCN(C(=O)NC3CCC(F)(F)CC3)CC2)c1` [Example 54], the “α7PAM (%) @ 10 μmol/L” value is listed as 657%.
Take `O=C(NCc1ccccc1)N1CCC(n2ncc3cc(C4CC4)ccc32)CC1` [Example 194]: the “α7PAM (%) @ 10 μmol/L” value was 278%.
Still for that read-out and setting: under `CCOc1ccc2c(cnn2C2CCN(C(=O)C3CCCCC3)CC2)c1` [Example 109] stands 267%; under `COc1ccc2c(c1)c(C)nn2C1CCN(C(=O)N[C@H]2CC[C@H](OC)CC2)CC1` [Example 242], 901%.
Still for that read-out and setting: under `CCOc1c(CC)ccc2c1cnn2C1CCN(C(=O)NC2CCOCC2)CC1` [Example 274] stands 618%; under `CCOCc1cccc2c1cnn2C1CCN(C(=O)NC2CCCCC2)CC1` [Example 167], 434%.
`CCc1ccc2c(cnn2C2CCN(C(=O)C3CCOCC3)CC2)c1` [Example 111]: the “α7PAM (%) @ 10 μmol/L” value turned out to be 410%.
Regarding `O=C(NC1CCC(F)(F)CC1)N1CCC(n2ncc3cc(Cl)ccc32)CC1` [Example 34, 4-(5-chloro-1H-indazol-1-yl)-N-(4,4-difluorocyclohexyl)piperidine-1-carboxamide], the activity at 10 µM came to 445%.
Regarding `CCOc1ccc2c(cnn2C2CCN(C(=O)NC3CCC(COC)CC3)CC2)c1` (stereo not drawn) [Example 234], the “α7PAM (%) @ 10 μmol/L” value worked out at 824%.
With `COCc1c(C)ccc2c1cnn2C1CCN(C(=O)N[C@H]2CC[C@H](OC)CC2)CC1` [Example 214], the “α7PAM (%) @ 10 μmol/L” value is given as 207%.
For the compound `Cc1c(C2CC2)ccc2c1cnn2C1CCN(C(=O)NC2CCC(F)(F)CC2)CC1` [Example 276], the “α7PAM (%) @ 10 μmol/L” value is 1351%.
Same read-out and setting: under `CCOc1ccc2c(cnn2C2CCN(C(=O)N[C@H]3CC[C@H](OC)CC3)CC2)c1C` [Example 282] stands 215%; under `O=C(NC1CCC(F)(F)CC1)N1CCC(n2ncc3cc(OC(F)F)ccc32)CC1` [Example 290], 1173%; under `O=C(NC1CCC(F)(F)CC1)N1CCC(n2ncc3ccccc32)CC1` [Example 38], 1101%.
On the same count and under the same terms, under `CCN(C(=O)N1CCC(n2ncc3ccccc32)CC1)C1CCC(OC)CC1` (stereo not drawn) [Example 51] stands 295%.
The same measure, in the same setting: under `O=C(NC1CCC1)N1CCC(n2ncc3cc(C4CC4)ccc32)CC1` [Example 185] stands 494%; under `O=C(C1CCOCC1)N1CCC(n2ncc3cc(F)ccc32)CC1` [Example 104], 190%; under `COC1CC1c1ccc2c(cnn2C2CCN(C(=O)N[C@H]3CC[C@H](OC)CC3)CC2)c1` (stereo partly drawn) [Example 246], 364%.
As to `CC(C)c1ccc2c(cnn2C2CCN(C(=O)C3CCOCC3)CC2)c1` [Example 107], the “α7PAM (%) @ 10 μmol/L” value is given as 159%.
For `CO[C@H]1CC[C@H](NC(=O)N2CCC(n3ncc4cc(OC5CC5)ccc43)CC2)CC1` [Example 230, 4-[5-(cyclopropoxy)-1H-indazol-1-yl]-N-(trans-4-methoxycyclohexyl)piperidine-1-carboxamide], the activity at 10 µM is 621%.
In the case of `CCOc1ccc2c(cnn2C2CCN(C(=O)NC3CCCCC3)CC2)c1` [Example 18, N-cyclohexyl-4-(5-ethoxy-1H-indazol-1-yl)piperidine-1-carboxamide], for the setting “result in words, ratio of RLU (Max-Min) to control wells, ACh EC20”, the “PAM activity for α7 nAChR” value was “stronger PAM activity than others”.
As to `COc1ccc(-c2ccc3c(cnn3C3CCN(C(=O)NC4CCC(F)(F)CC4)CC3)c2)cc1` [Example 156], the “α7PAM (%) @ 10 μmol/L” value was 358%.
